Laboratory results from ChEMBL document CHEMBL1201862, “PubChem BioAssay data set” (2004).
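Exposure lasted 48 hours, with cells grown in 96-well plates and compounds tested at five concentrations. GI50 marks 50% less growth.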 The source made the active and inactive calls. No stated cut-off is given here; in the data, active = GI50 up to about 1.1 µM and inactive = higher.

Assays:
Experiment in all cases: NCI anticancer screen, dose series, 48 h
[1] = tested on: 786-0
[2] = tested on: HCC 2998
[3] = tested on: HOP-92
[4] = tested on: HT-29
[5] = tested on: Hs-578T
[6] = tested on: KM12
[7] = tested on: NCI-H23
[8] = tested on: NCI-H522
[9] = tested on: NCI/ADR-RES
[10] = tested on: OVCAR-3
[11] = tested on: PC-3
[12] = tested on: SF-268
[13] = tested on: SF-295
[14] = tested on: SK-MEL-28
[15] = tested on: SK-OV-3
[16] = tested on: TK-10
[17] = tested on: UACC-62
[18] = tested on: UO-31
[19] = tested on: RPMI-8226

Measured: GI50

OC1(C2(c3ccc(Cl)cc3)CCCC2)c2ccccc2C2=NCCN21 (stereo unspecified)
inactive: [1] 14.3 µM | [2] 2.4 µM | [3] 13.4 µM | [4] 10.8 µM | [5] 36.3 µM | [6] 18.1 µM | [7] 18.7 µM | [8] 16.2 µM | [9] 17.1 µM | [10] 16.4 µM | [11] 11.9 µM | [12] 17.5 µM | [13] 16.5 µM | [14] 15.3 µM | [15] 18.8 µM | [16] 15.1 µM | [17] 16.1 µM | [18] 11.7 µM

CCCc1cc(=O)oc2c3c(c4c(c12)OC(C)(C)CC4)O[C@H](C)[C@@H](C)[C@H]3O
inactive: [1] 15.7 µM | [2] 16.6 µM | [3] 18.3 µM | [4] 10 µM | [5] 22.6 µM | [6] 12.8 µM | [7] 16 µM | [9] 11.2 µM | [10] 18.5 µM | [11] 10.1 µM | [19] 4.82 µM | [12] 17.4 µM | [13] 16.2 µM | [15] 17.5 µM | [17] 14.1 µM | [18] 13.8 µM

CC(C)(C)C1=C(Br)C(OC(=O)C(F)(F)F)(C(C)(C)C)OP1(=O)c1ccccc1 (stereo unspecified)
inactive: [1] 40.2 µM | [2] 38.6 µM | [3] 36.5 µM | [4] 37 µM | [5] 23.7 µM | [6] 63 µM | [7] 33.7 µM | [8] 42.2 µM | [9] 35.1 µM | [10] 31.9 µM | [11] 18.1 µM | [12] 61.4 µM | [13] 35.3 µM | [14] > 100 µM | [15] 39.1 µM | [16] 79.3 µM | [17] 28.8 µM | [18] 52.5 µM

CCOC(CN(C)C(=O)OCC(Cl)(Cl)Cl)OCC
inactive: [1] > 100 µM | [2] > 100 µM | [3] 33.9 µM | [4] 79.1 µM | [5] 29.7 µM | [6] > 100 µM | [7] 59.7 µM | [8] 47.8 µM | [9] 39.4 µM | [10] > 100 µM | [11] 23.3 µM | [12] > 100 µM | [13] > 100 µM | [14] > 100 µM | [15] > 100 µM | [16] > 100 µM | [17] > 100 µM | [18] 27.6 µM

O=C1NC(O)c2ccccc2O1 (stereo unspecified)
inactive: [1] > 100 µM | [2] > 100 µM | [3] > 100 µM | [4] > 100 µM | [5] > 100 µM | [6] > 100 µM | [7] > 100 µM | [8] > 100 µM | [9] > 100 µM | [10] > 100 µM | [11] > 100 µM | [12] > 100 µM | [13] > 100 µM | [14] > 100 µM | [15] > 100 µM | [16] > 100 µM | [17] > 100 µM | [18] > 100 µM

O=C(O)CC1OCC=C2C[N+]3([O-])CCC45c6ccccc6NC4C1C2CC53 (stereo unspecified)
inactive: [1] > 100 µM | [3] > 100 µM | [4] > 100 µM | [5] > 100 µM | [6] > 100 µM | [7] > 100 µM | [8] > 100 µM | [9] > 100 µM | [10] > 100 µM | [11] > 100 µM | [19] > 100 µM | [12] > 100 µM | [13] > 100 µM | [14] > 100 µM | [15] > 100 µM | [16] > 100 µM | [17] > 100 µM | [18] > 100 µM

COC(=O)c1sc2c(Cl)c(Cl)sc2c1Cl
inactive: [1] 43.8 µM | [2] > 100 µM | [3] > 100 µM | [4] > 100 µM | [5] > 100 µM | [6] > 100 µM | [7] > 100 µM | [8] > 100 µM | [9] > 100 µM | [10] 93.8 µM | [11] > 100 µM | [12] > 100 µM | [13] 77.4 µM | [14] > 100 µM | [15] > 100 µM | [16] 24.2 µM | [17] > 100 µM | [18] > 100 µM

CCOC(=O)CC1c2ccc(O)cc2OC(=O)C1c1ccc([N+](=O)[O-])cc1 (stereo unspecified)
inactive: [1] 41.3 µM | [2] 20.3 µM | [3] 20.4 µM | [4] 35.2 µM | [5] 46.7 µM | [6] 34.3 µM | [7] 27.7 µM | [8] 18.6 µM | [9] 27 µM | [10] 28.8 µM | [11] 22.5 µM | [12] 40 µM | [13] 38.4 µM | [14] 38 µM | [15] 33.3 µM | [16] 30.3 µM | [17] 37.2 µM
